Experimental data: article PMC9888311, “Neonatal NET-Inhibitory Factor improves survival in the cecal ligation and puncture model of polymicrobial sepsis by inhibiting neutrophil extracellular traps” (Frontiers in Immunology, 2023)
Where no end group is shown, it is not given here.

How the values were obtained:
[1] = test system: CLP model of polymicrobial sepsis; experiment: Blinded clinical illness severity score after CLP; format: in vivo, mouse (outbred Swiss Webster); conditions: compared to vehicle control
Description: Mice were anesthetized with 3% isoflurane in an induction chamber, and anesthesia was maintained by use of inhalation via nose cone. Sepsis was induced by cecal ligation and puncture (CLP) as previously described ([30], [31]). […] The animals received subcutaneous sterile isotonic saline (0.5 mL) for fluid resuscitation immediately after surgery. Sham-operated mice were subjected to identical procedures, except that ligation and puncture of the cecum was omitted. Survival of mice subjected to CLP or sham injury was determined daily for 6 days. Twenty-four and 48 hours after CLP, all animals were scored for clinical illness severity as previously described ([32]) by an examiner blinded to treatment arm. In this assessment, higher scores reflect increased illness severity with non-surviving mice receiving a score of 10. These mice were included in the statistical analysis. In additional experiments, mature Swiss-webster mice were treated with sham surgery or CLP procedure. At 4 hours after surgery, mice underwent blinded clinical illness severity assessment, measurement of body weight and temperature, peritoneal fluid and whole blood neutrophil counts, whole blood platelet counts, and plasma creatinine level determination.

[2] = test system: peritoneal fluid and stool microbiomes; experiment: 16S rRNA gene sequencing of peritoneal fluid and stool microbiomes; format: in vivo, mouse (outbred Swiss Webster); conditions: CLP-treated mice; for relative abundance of Enterobacteriaceae in stool and peritoneal fluid: ANCOM-BC, relative to vehicle; for Bray-Curtis distance of peritoneal fluid microbiome from stool microbiome: each group compared to vehicle
Description: Libraries were constructed for sequencing approximately 460 bp of the variable V3 and V4 regions of 16S rRNA using a two-step PCR process. Genomic DNA (5 to 20 ng) was PCR amplified for 14 cycles using the Quick-16S Primer Set V3-V4 (Zymo Research cat# D6405-2-400) with NEBNext Ultra II Q5 Master Mix (NEB cat# M0544). Dual unique indexing adapters (Illumina cat#20027213) were added to the amplicons during a second PCR reaction (6 cycles). 16S libraries were qualified on an Agilent Technologies 4150 TapeStation using a D1000 ScreenTape assay (cat# 5067-5582 and 5067-5583, respectively) and the molarity of adapter-modified molecules was defined by quantitative PCR using the Kapa Biosystems Kapa Library Quant Kit (cat#KK4824). Libraries were normalized and pooled (12 pM) and chemically denatured along with 15% molar representation of PhiX library in preparation for sequencing on an Illumina MiSeq instrument in paired-end 300 cycle mode. Raw 16S sequences were read in and processed with […] 2021.11 plugins ([33]). In brief, demultiplexed and quality-filtered sequences were first trimmed of primer and linker sequences with the Cutadapt plugin, then denoised to ASVs using DADA2 ([34], [35]). […] Diversity metrics, distances, and statistical significance of beta diversity groupings by permanova were further calculated within […]2 artefacts were then read into R and genera tested for differential abundances using ANCOM-BC implemented in the microbiomeMarker package ([37], [38]). Scripts used for processing and analyses have been deposited along with processed QIIME2 artifact files at: https://github.com/wzacs1/Araujo_nNIF. Raw sequences have been deposited in the NCBI SRA under BioProject accession PRJNA884333.

IL-6 = experiment: Peritoneal fluid cytokine multiplex array, IL-6; format: in vivo, mouse (outbred Swiss Webster); conditions: 24 h after CLP; nNIF 1 mg/kg at 4 and 10 hours; N=5-9
Description: (§1) Peritoneal fluid cytokines were analyzed using a mouse Cytokine/Chemokine Panel I Multiplex Array (Millipore Sigma catalog# HCYTMAG60-PMX41) according to manufacturer’s instructions on a Luminex 200 instrument. Bacterial counts in whole blood and peritoneal lavage were determined 24 hours after CLP. Briefly, peritoneal fluid and blood samples were collected, serially diluted, plated on LB-agar dishes, and incubated at 37°C for 24 hours. The number of bacterial colonies was counted and expressed as CFU/mL.

neutrophils = neutrophils exposed to nNIF; cited from earlier work
From the text: When considering the low DNA staining on confocal imaging of peritoneal leukocytes, it may be that the NET inhibition contributes to decreased endothelial dysfunction ([48]) and prevents immunothrombosis ([22]) which then leads to decreased inflammation. Alternatively, or in combination, the lack of NETs may lead to decreased opportunities to capture bacteria and thereby limit the chance that circulating PMNs will recognize and become acti ...

[3] = test system: peritoneal fluid leukocytes; experiment: Peritoneal fluid WBC and neutrophil counts (flow cytometry); format: in vivo, mouse (outbred Swiss Webster); conditions: 24 hours after CLP; nNIF 1 mg/kg IV at 4 and 10 hours after CLP; N=5-9
Description: (§2) Twenty-four hours after CLP or sham surgery, total white blood cell and differential neutrophil counts were determined both in whole blood samples collected from orbital vein using heparinized capillaries tubes and peritoneal fluid by washing with 3 mL of PBS, respectively. Then, samples were incubated with CD45 APC-Cy7 (Biolegend), CD11b PE-Cy7 (EBioscience), Ly6G BV510 (Biolegend), and CD16/CD32 (Fc-block, EBioscience) for 30 minutes at 37 °C. Thirty minutes later, cells were washed, fixed, and ran on a Beckman Coulter Cytoflex located in the University of Utah Flow Cytometry Core.

TNF-α = experiment: Peritoneal fluid cytokine multiplex array, TNF-α; format: in vivo, mouse (outbred Swiss Webster); conditions: 24 h after CLP; nNIF 1 mg/kg at 4 and 10 hours; compared to all other treatment groups; N=5-9
Description: as §1

[4] = test system: neutrophil extracellular traps (NETs), plasma; experiment: Plasma NET formation (MPO-DNA complex ELISA); format: in vivo, mouse (outbred Swiss Webster); conditions: 24 hours after CLP; for plasma MPO-DNA complexes compared to other CLP treatment groups: nNIF 1 mg/kg IV or meropenem 25 mg/kg IP at 4 and 10 hours after CLP, N=3-5 per group, two experiments
Description: An in-house ELISA was used to quantify MPO-DNA complexes in plasma and peritoneal fluid from sham and CLP mice 24 hours after the surgical procedure ([24], [27]). Briefly, after overnight coating with anti-MPO capture antibody in calcium carbonate coating buffer (2 µg/ml; 0400-0002, Bio-Rad) at 4°C, a 96-well plate was blocked with 2.5% bovine serum albumin in PBS for 2 hours at room temperature. The plate was subsequently washed, before incubating for 90 minutes at room temperature with 10% peritoneal fluid in blocking buffer. The plate was washed five times, and then incubated for 90 minutes at room temperature with anti-DNA detection antibody (1:20; Cell Death detection ELISA, 11544675001, Sigma). After five washes, the plate was developed with TMB substrate solution (Sigma).

whole blood leukocytes = experiment: Whole blood WBC and neutrophil counts (flow cytometry); format: in vivo, mouse (outbred Swiss Webster); conditions: 24 hours after CLP; nNIF 1 mg/kg IV at 4 and 10 hours after CLP; N=3-5
Description: as §2

IL-10 = experiment: Peritoneal fluid cytokine multiplex array, IL-10; format: in vivo, mouse (outbred Swiss Webster); conditions: 24 h after CLP; nNIF 1 mg/kg at 4 and 10 hours; N=5-9
Description: as §1

[5] = single dose 10 mg/kg, retro-orbital venous injection; LC/MS/MS; N=2-3 mice/time point
Description: PK plasma sample generation – Mature Swiss-Webster mice were inject ed with nNIF (10 mg/kg,
0.003% DMSO in PBS) via retro-orbital venous injection. Blood samples were obtain ed via
cheek bleed and cardiac puncture at 5, 15, 30, and 45 minutes, and at 1, 4, 8, 12, 24, and 48 hours
after nNIF injection. Only three blood samples were drawn from each indiv idual mouse, and
multiple mice were used to generate 2 -3 plasma samples per timepoint for PK analysis. Blood
samples were collected i n heparin coated capillary tubes, centrifuged at 1000 rpm for 10 minutes,
and snap-frozen in liquid nitrogen. Plasma samples were kept frozen at -80°C until analysis.
Mouse plasma PK quantitative bioanalysis – Flash -frozen mouse samples were thawed on ice
and spiked with 100 nM nNIF-H; precipitated with five volumes of 90% acetonitrile, 1% acetic
acid, and 0.1% formic acid in water; and filtered through a Phree Phosphol ipid Removal
Extraction Plate (Pheno menex). Standards with known concent rations of nNIF (100 pM to 25
μM) and nNIF-H (100 n M) spiked into mouse plasma were p repared using the same methods.
Supernatants were an alyzed by LC/MS/MS on an ExionLC UHPLC system coupled to a QTRAP […]
positive-ion mode. Mass transitions (m/z) used for quantitation were 846.9/ 976.1 and
determined from the nNIF/nNIF-H peak area ratio in extracted-ion chromat ograms compared […]

[6] = nNIF 1 mg/kg IV at 4 and 10 hours after CLP

Compound	illness severity score at 48 hours ([1]; nNIF 0.5 mg/kg IV at 4 and 10 hours after CLP)	illness severity score at 24 hours [1, 6]	illness severity score at 48 hours [1, 6]	peritoneal fluid and stool microbiomes (beta diversity, Bray-Curtis, PERMANOVA) ([2]; 16S rRNA V3/V4 sequencing, N=5-7 per group)	relative abundance of Enterobacteriaceae in stool and peritoneal fluid [2]	Bray-Curtis distance of peritoneal fluid microbiome from stool microbiome [2]	IL-6 level in peritoneal fluid (IL-6)	neutrophil ability to generate reactive-oxygen species and phagocytize E. coli bioparticles (neutrophils)	peritoneal WBC and neutrophil counts [3]	TNF-α level in peritoneal fluid (TNF-α)	plasma MPO-DNA complexes compared to other CLP treatment groups [4]	whole blood white blood cell and neutrophil counts (whole blood leukocytes)	IL-10 level in peritoneal fluid (IL-10)	nNIF plasma concentration-time course [5]	plasma MPO-DNA complexes compared to the sham surgery group ([4]; nNIF-SCR 1 mg/kg IV or meropenem 25 mg/kg IP at 4 and 10 hours after CLP)
KFNKPFVFLMIEQNTKSPLFMGKVVNPTQ-OH [nNIF, neonatal NET-Inhibitory Factor]	improvement in the illness severity scores	improvement in the illness severity scores	improvement in the illness severity scores	did not alter the peritoneal fluid and stool microbiomes	did not affect their abundances	as dissimilar from their stool counterparts as were vehicle controls	decreased compared to meropenem treated mice but not compared to the nNIF-SCR treatment group	still maintain their ability	without altering peritoneal WBC and neutrophil counts	decreased TNF-α levels in peritoneal fluid	significant reduction in MPO-DNA complexes	without affecting white blood cell or neutrophil counts	lack of an nNIF-associated alteration in IL-10 levels	initial rapid decrease in nNIF plasma concentrations followed by a slower rate of decay	
C[C@@H](O)[C@H]1C(=O)N2C(C(=O)O)=C(S[C@@H]3CN[C@H](C(=O)N(C)C)C3)[C@H](C)[C@H]12 [meropenem, reference compound]					decreased in stool and peritoneal fluid	more similar stool and peritoneal microbiomes					equivalent between the vehicle and meropenem arms				significantly increased MPO-DNA complexes
